According to patent publication US20040147531A1, “Amidine derivatives for treating amyloidosis” (priority 2001, published 2004):

Biological target: T1, Aβ40 (Homo sapiens, UniProt P05067)
T1 construct: 200 μM of a test compound and 20 μM of solubilized Aβ40
Experiment: mass spectroscopy (MS) assay, binding to Aβ
Set-up: key: “+” = active; “−” = inactive; “pr” = promoting
Details: 200 μM test compound, 20 μM solubilized Aβ40, pH 7.4; ability to bind to Aβ
Protocol: Test compounds were purchased from commercial sources or synthesized and screened by thioflavin T fluorescent assay (“ThT assay”). Alternatively, one could screen test compounds by circular dichroism (“CD”), electron microscopy (“EM”), or mass spectroscopy (“MS”) assays.
And in the mass spectroscopy (“MS”) assay, samples were prepared as aqueous solutions containing 20% ethanol, 200 μM of a test compound and 20 μM of solubilized Aβ40. The pH value of each sample was adjusted to 7.4 (±0.2) by addition of 0.1% aqueous sodium hydroxide. The solutions were then analyzed by electrospray ionization mass spectroscopy using a Waters ZQ 4000 mass spectrometer. Samples were introduced by direct infusion at a flow-rate of 25 μL/min within 2 hr. after sample preparation. The source temperature was kept at 70° C. and the cone voltage was 20 V for all the analysis. Data were processed using Masslynx 3.5 software.

T1 sequence (P05067 672-711 limits assumed): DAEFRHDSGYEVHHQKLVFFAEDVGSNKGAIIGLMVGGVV

Compound	MS Assay
N=C(N)c1ccc(OCCCCCOc2ccc(-c3nc4cc(C(=N)N)ccc4[nH]3)cc2)cc1 [Compound 94]	+
N=C(N)c1ccc2[nH]c(-c3ccccc3)nc2c1 [Compound 81]	+
N=C(Nc1ccc(-c2ccc(-c3ccc(NC(=N)c4ccccn4)cc3O)o2)c(O)c1)c1ccccn1 [Compound 136]	+
N=C(N)c1ccc(COc2ccc([N+](=O)[O-])cc2)cc1 [Compound 67]	−
N=C(N)c1ccc(-c2cc3ccc(C(=N)N)cc3[nH]2)cc1 [Compound 47]	−
CC(=N)Nc1ccc(-c2ccc(-c3ccc(NC(C)=N)cc3C)o2)c(C)c1 [Compound 135]	+
Cl.N=C(N)c1ccc(OCCCCCCCCC(=O)O)cc1 [Compound 45]	+
N=C(N)c1cccc(OCCC(O)COc2cccc(C(=N)N)c2)c1 (stereo not drawn) [Compound 79]	+
CC(C)NC(=N)c1ccc(COc2ccc3ccc(OCc4ccc(C(=N)NC(C)C)cc4)cc3c2)cc1 [Compound 90]	+
c1cc2c(cc1C1=NCCN1)c1cc(C3=NCCN3)ccc1n2CCCCCn1c2ccc(C3=NCCN3)cc2c2cc(C3=NCCN3)ccc21 [Compound 63]	+
Br.N=C(N)c1ccc(OCCCCCCCCBr)cc1 [Compound 44]	+
N=C(N)c1ccc2[nH]c(Cc3nc4cc([N+](=O)[O-])ccc4[nH]3)nc2c1 [Compound 80]	+
Cl.Cl.N=C(N)Nc1ccc(OCCCCCOc2ccc(NC(=N)N)cc2)cc1 [Compound 49]	+
N=C(N)c1ccc(NC(=O)CC(=O)Nc2ccc(C(N)N)cc2)cc1 [Compound 98]	+
Cl.Cl.N=C(N)Cc1ccc(OCCCCCOc2ccc(CC(=N)N)cc2)cc1 [Compound 48]	+
COc1cc(C2=NCCN2)ccc1OCCCOc1ccc(C2=NCCN2)cc1OC [Compound 85]	−
N=C(N)c1cccc(OCc2ccccc2)c1 [Compound 68]	−

Compound	MS Assay
Cl.N=C(N)c1ccc(OCCCOc2ccc(CCC(=O)O)cc2)cc1 [Compound 40]	−
c1cc2[nH]c(-c3ccc4[nH]c(CCc5nc6cc(-c7nc8cc(C9=NCCN9)ccc8[nH]7)ccc6[nH]5)nc4c3)nc2cc1C1=NCCN1 [Compound 87]	+
Cc1c(-c2ccc(C(=N)N)cc2)oc(-c2ccc(C(=N)N)cc2)c1C [Compound 57]	+
N=C(N)c1ccc(-c2ccc(-c3ccc(C(=N)N)cc3)o2)cc1 [Compound 99]	+
Cc1nc(-c2ccc(C(=N)N)cc2)cc(-c2ccc(C(=N)N)cc2)n1 [Compound 106]	+
N=C(N)c1ccc2nc(-c3ccc4cc(-c5nc6ccc(C(=N)N)cc6[nH]5)ccc4c3)[nH]c2c1 [Compound 110]	+
N=C(N)c1ccc(OCCCCCCCCCBr)cc1 [Compound 43]	+
COc1ccc2c(c1)[nH]c1cc(C(=N)N)ccc12 [Compound 59]	+
COC(=O)C(CCOc1ccc(C(=N)NO)cc1)CCOc1ccc(C(=N)NO)cc1 (stereo not drawn) [Compound 95]	+
Cl.N=C(N)c1ccc(OCCCCCCCC(=O)O)cc1 [Compound 42]	+
COc1cc(C(=N)N)ccc1OC/C=C\COc1ccc(C(=N)N)cc1OC [Compound 86]	+
N=C(N)c1ccc2nc(-c3ccc(-c4ccc([N+](=O)[O-])cc4)o3)[nH]c2c1 [Compound 111]	+
CC(C)NC(=N)c1cccc(COc2ccc3ccc(OCc4cccc(C(=N)NC(C)C)c4)cc3c2)c1 [Compound 91]	+
Cn1c(CCCCc2nc3cc(C(=N)N)ccc3n2C)nc2cc(C(=N)N)ccc21 [Compound 97]	+
Cc1cc(-c2nc3cc(C(=N)N)ccc3[nH]2)c(C)cc1-c1nc2cc(C(=N)N)ccc2[nH]1 [Compound 73]	+
N=C(N)c1ccc2nc(-c3ccc(CCc4ccc(F)cc4)cc3)[nH]c2c1 [Compound 126]	+
